Assay results reported in US6706663B2, “Herbicidal 3-heterocyclic substituted benzisothiazole and benzisoxazole compounds” (Wyeth, priority 2000, dated 2004).

Experiments:
[1] = system: CHEAL (Chenopodium album); assay: Preemergence herbicidal evaluation; assay type: in vivo, L.; conditions: preemergence, rated 4-5 weeks after treatment
Method in brief: (§1)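 Seeds planted in potting soil cups and sprayed preemergence with aqueous acetone compound solution. Greenhouse-grown; rated 4–5 weeks after treatment on a 0-9 visual scale (stand, vigor, malformation, size, chlorosis, appearance) versus control.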

[2] = system: AMBEL (Ambrosia artemisifolia); assay: Preemergence herbicidal evaluation; assay type: in vivo, L.; conditions: preemergence, rated 4-5 weeks after treatment
Method in brief: as §1

[3] = system: CASOB (Cassia obtusifolia); assay: Preemergence herbicidal evaluation; assay type: in vivo, L.; conditions: preemergence, rated 4-5 weeks after treatment
Method in brief: as §1

[4] = system: TRZAWR (Wheat, Winter, cv Riband); assay: Postemergence herbicidal evaluation; assay type: in vivo, Triticum aestivum; conditions: for TRZAWR herbicidal rating: postemergence
Method in brief: (§2)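 Seedlings grown about two weeks in flats, sprayed, then kept under standard greenhouse care. Rated visually 4–5 weeks after treatment on a 0–9 scale (stand, vigour, malformation, size, chlorosis, overall appearance) relative to untreated control; repeat tests averaged.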

CYPIR (Cyperus iria) = assay: Flooded paddy, preemergence weed control; assay type: in vivo; conditions: rated 3-4 weeks after treatment, 0-9 rating scale
Method in brief: (§3)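 Plants were established from seed or propagating organs in flooded silt loam, with the water surface held 1.5 to 3 cm above the soil for the entire experiment. Injury was assessed visually against a control and given a 0-9 score.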

[5] = system: ECHCG (Echinochloa crus-galli); assay: Preemergence herbicidal evaluation; assay type: in vivo, (L.) Beau; conditions: preemergence, rated 4-5 weeks after treatment
Method in brief: as §1

SETVI (Setaria viridis) [6] = assay: Preemergence herbicidal evaluation; assay type: in vivo, (L.) Beau; conditions: preemergence, rated 4-5 weeks after treatment
Method in brief: as §1

[7] = system: ABUTH (Abutilon theophrasti); assay: Postemergence herbicidal evaluation; assay type: in vivo, Medic.; conditions: for ABUTH herbicidal rating: postemergence
Method in brief: as §2

ORYSAT (Rice, Tebonnet) [8] = assay: Preemergence herbicidal evaluation; assay type: in vivo, Oryza sativa, (L.) Tebonnet; conditions: preemergence, rated 4-5 weeks after treatment
[9] = system: CHEAL (Chenopodium album); assay: Postemergence herbicidal evaluation; assay type: in vivo, L.; conditions: for CHEAL herbicidal rating: postemergence
Method in brief: as §2

[10] = system: AMBEL (Ambrosia artemisifolia); assay: Postemergence herbicidal evaluation; assay type: in vivo, L.; conditions: for AMBEL herbicidal rating: postemergence
Method in brief: as §2

[11] = system: CASOB (Cassia obtusifolia); assay: Postemergence herbicidal evaluation; assay type: in vivo, L.; conditions: for CASOB herbicidal rating: postemergence
Method in brief: as §2

[12] = system: SAGPY (Sagittaria pygmaea); assay: Flooded paddy, preemergence weed control; assay type: in vivo, L.; conditions: rated 3-4 weeks after treatment, 0-9 rating scale
Method in brief: as §3

[13] = system: IPOHE (Ipomoea hederacea); assay: Postemergence herbicidal evaluation; assay type: in vivo, (L.) Jacq.; conditions: for IPOHE herbicidal rating: postemergence
Method in brief: as §2

GALAP (Galium aparine) [14] = assay: Preemergence herbicidal evaluation; assay type: in vivo; conditions: preemergence, rated 4-5 weeks after treatment
Method in brief: as §1

ORYSAT (Rice, Tebonnet) [15] = assay: Postemergence herbicidal evaluation; assay type: in vivo, Oryza sativa, (L.) Tebonnet; conditions: for ORYSAT herbicidal rating: postemergence
Method in brief: as §2

[16] = system: MOOVA (Monochoria vaginalis); assay: Flooded paddy, preemergence weed control; assay type: in vivo, Presl.; conditions: rated 3-4 weeks after treatment, 0-9 rating scale
Method in brief: as §3

SETVI (Setaria viridis) [17] = assay: Postemergence herbicidal evaluation; assay type: in vivo, (L.) Beau; conditions: for SETVI herbicidal rating: postemergence
Method in brief: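 Ratings use a 0-9 visual scale covering stand, vigor, malformation, size, chlorosis and appearance versus a control, scored 4-5 weeks post-spray. Roughly two-week-old seedlings received about 0.0040-1.000 kg/ha active, applied in 50/50 acetone/water with 0.5% TWEEN 20. Multiple tests per compound were averaged.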

GALAP (Galium aparine) [18] = assay: Postemergence herbicidal evaluation; assay type: in vivo; conditions: for GALAP herbicidal rating: postemergence
Method in brief: as §2

Structure (SMILES): Cn1c(C(F)(F)F)cc(=O)n(-c2ccc3snc(C4OCC(CS(C)(=O)=O)O4)c3c2)c1=O (single isomer, unassigned) [Compound 87, 1-methyl-3-[3-[4-[(methylsulfonyl)methyl]-1,3-dioxolan-2-yl]-1,2-benzisothiazol-5-yl]-6-(trifluoromethyl)uracil]
- Preemergence herbicidal rating CHEAL ([1]; rate 0.0620 kg/ha): 9.0
- Preemergence herbicidal rating CHEAL ([1]; rate 0.1250 kg/ha): 9.0
- Preemergence herbicidal rating CHEAL ([1]; rate 0.2500 kg/ha): 9.0
- Preemergence herbicidal rating AMBEL ([2]; rate 0.0620 kg/ha): 9.0
- Preemergence herbicidal rating AMBEL ([2]; rate 0.1250 kg/ha): 9.0
- Preemergence herbicidal rating AMBEL ([2]; rate 0.2500 kg/ha): 9.0
- Preemergence herbicidal rating CASOB ([3]; rate 0.0620 kg/ha): 6.0
- Preemergence herbicidal rating CASOB ([3]; rate 0.1250 kg/ha): 9.0
- Preemergence herbicidal rating CASOB ([3]; rate 0.2500 kg/ha): 7.0
- TRZAWR herbicidal rating ([4]; rate 0.0320 kg/ha): 3.0
- TRZAWR herbicidal rating ([4]; rate 0.0620 kg/ha): 4.0
- CYPIR herbicidal rating (CYPIR (Cyperus iria); rate 0.0320 kg/ha): 0.0
- CYPIR herbicidal rating (CYPIR (Cyperus iria); rate 0.1250 kg/ha): 5.0
- Preemergence herbicidal rating ECHCG ([5]; rate 0.0620 kg/ha): 5.5
- Preemergence herbicidal rating ECHCG ([5]; rate 0.1250 kg/ha): 6.5
- Preemergence herbicidal rating ECHCG ([5]; rate 0.2500 kg/ha): 9.0
- Preemergence herbicidal rating SETVI (SETVI (Setaria viridis) [6]; rate 0.0620 kg/ha): 6.0
- Preemergence herbicidal rating SETVI (SETVI (Setaria viridis) [6]; rate 0.1250 kg/ha): 8.0
- Preemergence herbicidal rating SETVI (SETVI (Setaria viridis) [6]; rate 0.2500 kg/ha): 9.0
- ABUTH herbicidal rating ([7]; rate 0.0320 kg/ha): 9.0
- ABUTH herbicidal rating ([7]; rate 0.0620 kg/ha): 9.0
- Preemergence herbicidal rating ORYSAT (ORYSAT (Rice, Tebonnet) [8]; rate 0.0620 kg/ha): 2.0
- Preemergence herbicidal rating ORYSAT (ORYSAT (Rice, Tebonnet) [8]; rate 0.1250 kg/ha): 3.0
- Preemergence herbicidal rating ORYSAT (ORYSAT (Rice, Tebonnet) [8]; rate 0.2500 kg/ha): 5.0
- CHEAL herbicidal rating ([9]; rate 0.0320 kg/ha): 9.0
- CHEAL herbicidal rating ([9]; rate 0.0620 kg/ha): 9.0
- AMBEL herbicidal rating ([10]; rate 0.0320 kg/ha): 9.0
- AMBEL herbicidal rating ([10]; rate 0.0620 kg/ha): 9.0
- CASOB herbicidal rating ([11]; rate 0.0320 kg/ha): 9.0
- CASOB herbicidal rating ([11]; rate 0.0620 kg/ha): 9.0
- SAGPY herbicidal rating ([12]; rate 0.0320 kg/ha): 0.0
- SAGPY herbicidal rating ([12]; rate 0.1250 kg/ha): 0.0
- IPOHE herbicidal rating ([13]; rate 0.0320 kg/ha): 9.0
- IPOHE herbicidal rating ([13]; rate 0.0620 kg/ha): 9.0
- Preemergence herbicidal rating GALAP (GALAP (Galium aparine) [14]; rate 0.0620 kg/ha): 6.0
- Preemergence herbicidal rating GALAP (GALAP (Galium aparine) [14]; rate 0.1250 kg/ha): 9.0
- Preemergence herbicidal rating GALAP (GALAP (Galium aparine) [14]; rate 0.2500 kg/ha): 9.0
- ORYSAT herbicidal rating (ORYSAT (Rice, Tebonnet) [15]; rate 0.0320 kg/ha): 3.0
- ORYSAT herbicidal rating (ORYSAT (Rice, Tebonnet) [15]; rate 0.0620 kg/ha): 3.5
- MOOVA herbicidal rating ([16]; rate 0.0320 kg/ha): 0.0
- MOOVA herbicidal rating ([16]; rate 0.1250 kg/ha): 8.0
- SETVI herbicidal rating (SETVI (Setaria viridis) [17]; rate 0.0320 kg/ha): 6.0
- SETVI herbicidal rating (SETVI (Setaria viridis) [17]; rate 0.0620 kg/ha): 9.0
- GALAP herbicidal rating (GALAP (Galium aparine) [18]; rate 0.0320 kg/ha): 9.0
- GALAP herbicidal rating (GALAP (Galium aparine) [18]; rate 0.0620 kg/ha): 9.0

Structure (SMILES): Cn1c(C(F)(F)F)cc(=O)n(-c2ccc3snc(-c4ccccn4)c3c2)c1=O [Compound 9, 1-methyl-3-[3-(2-pyridyl)-1,2-benzisothiazol-5-yl]-6-(trifluoromethyl)uracil]
- CHEAL preemergence herbicidal rating ([1]; Rate 0.0620 kg/ha): 9.0
- CHEAL preemergence herbicidal rating ([1]; Rate 0.1250 kg/ha): 9.0
- CHEAL preemergence herbicidal rating ([1]; Rate 0.2500 kg/ha): 9.0
- AMBEL preemergence herbicidal rating ([2]; Rate 0.0620 kg/ha): 6.3
- AMBEL preemergence herbicidal rating ([2]; Rate 0.1250 kg/ha): 9.0
- AMBEL preemergence herbicidal rating ([2]; Rate 0.2500 kg/ha): 9.0
- CASOB preemergence herbicidal rating ([3]; Rate 0.0620 kg/ha): 1.0
- CASOB preemergence herbicidal rating ([3]; Rate 0.1250 kg/ha): 2.7
- CASOB preemergence herbicidal rating ([3]; Rate 0.2500 kg/ha): 6.3
- Postemergence herbicidal rating, TRZAWR ([4]; rate 0.0320 kg/ha): 4.0
- Postemergence herbicidal rating, TRZAWR ([4]; rate 0.0620 kg/ha): 4.5
- Postemergence herbicidal rating, TRZAWR ([4]; rate 0.1250 kg/ha): 6.0
- herbicidal rating, CYPIR (CYPIR (Cyperus iria); rate 0.0080 kg/ha): 8.0
- herbicidal rating, CYPIR (CYPIR (Cyperus iria); rate 0.0320 kg/ha): 7.0
- herbicidal rating, CYPIR (CYPIR (Cyperus iria); rate 0.1250 kg/ha): 9.0
- ECHCG preemergence herbicidal rating ([5]; Rate 0.0620 kg/ha): 8.3
- ECHCG preemergence herbicidal rating ([5]; Rate 0.1250 kg/ha): 9.0
- ECHCG preemergence herbicidal rating ([5]; Rate 0.2500 kg/ha): 9.0
- SETVI preemergence herbicidal rating (SETVI (Setaria viridis) [6]; Rate 0.0620 kg/ha): 9.0
- SETVI preemergence herbicidal rating (SETVI (Setaria viridis) [6]; Rate 0.1250 kg/ha): 9.0
- SETVI preemergence herbicidal rating (SETVI (Setaria viridis) [6]; Rate 0.2500 kg/ha): 9.0
- Postemergence herbicidal rating, ABUTH ([7]; rate 0.0320 kg/ha): 9.0
- Postemergence herbicidal rating, ABUTH ([7]; rate 0.0620 kg/ha): 9.0
- Postemergence herbicidal rating, ABUTH ([7]; rate 0.1250 kg/ha): 9.0
- ORYSAT preemergence herbicidal rating (ORYSAT (Rice, Tebonnet) [8]; Rate 0.0620 kg/ha): 4.3
- ORYSAT preemergence herbicidal rating (ORYSAT (Rice, Tebonnet) [8]; Rate 0.1250 kg/ha): 6.7
- ORYSAT preemergence herbicidal rating (ORYSAT (Rice, Tebonnet) [8]; Rate 0.2500 kg/ha): 8.0
- Postemergence herbicidal rating, CHEAL ([9]; rate 0.0320 kg/ha): 9.0
- Postemergence herbicidal rating, CHEAL ([9]; rate 0.0620 kg/ha): 9.0
- Postemergence herbicidal rating, CHEAL ([9]; rate 0.1250 kg/ha): 9.0
- Postemergence herbicidal rating, AMBEL ([10]; rate 0.0320 kg/ha): 9.0
- Postemergence herbicidal rating, AMBEL ([10]; rate 0.0620 kg/ha): 9.0
- Postemergence herbicidal rating, AMBEL ([10]; rate 0.1250 kg/ha): 9.0
- Postemergence herbicidal rating, CASOB ([11]; rate 0.0320 kg/ha): 6.5
- Postemergence herbicidal rating, CASOB ([11]; rate 0.0620 kg/ha): 8.0
- Postemergence herbicidal rating, CASOB ([11]; rate 0.1250 kg/ha): 9.0
- herbicidal rating, SAGPY ([12]; rate 0.0080 kg/ha): 0.0
- herbicidal rating, SAGPY ([12]; rate 0.0320 kg/ha): 3.0
- herbicidal rating, SAGPY ([12]; rate 0.1250 kg/ha): 9.0
- Postemergence herbicidal rating, IPOHE ([13]; rate 0.0320 kg/ha): 9.0
- Postemergence herbicidal rating, IPOHE ([13]; rate 0.0620 kg/ha): 9.0
- Postemergence herbicidal rating, IPOHE ([13]; rate 0.1250 kg/ha): 9.0
- GALAP preemergence herbicidal rating (GALAP (Galium aparine) [14]; Rate 0.0620 kg/ha): 1.5
- GALAP preemergence herbicidal rating (GALAP (Galium aparine) [14]; Rate 0.1250 kg/ha): 3.0
- GALAP preemergence herbicidal rating (GALAP (Galium aparine) [14]; Rate 0.2500 kg/ha): 7.0
- Postemergence herbicidal rating, ORYSAT (ORYSAT (Rice, Tebonnet) [15]; rate 0.0320 kg/ha): 3.8
- Postemergence herbicidal rating, ORYSAT (ORYSAT (Rice, Tebonnet) [15]; rate 0.0620 kg/ha): 4.3
- Postemergence herbicidal rating, ORYSAT (ORYSAT (Rice, Tebonnet) [15]; rate 0.1250 kg/ha): 3.0
- herbicidal rating, MOOVA ([16]; rate 0.0080 kg/ha): 8.0
- herbicidal rating, MOOVA ([16]; rate 0.0320 kg/ha): 9.0
- herbicidal rating, MOOVA ([16]; rate 0.1250 kg/ha): 9.0
- Postemergence herbicidal rating, SETVI (SETVI (Setaria viridis) [17]; rate 0.0320 kg/ha): 8.0
- Postemergence herbicidal rating, SETVI (SETVI (Setaria viridis) [17]; rate 0.0620 kg/ha): 9.0
- Postemergence herbicidal rating, SETVI (SETVI (Setaria viridis) [17]; rate 0.1250 kg/ha): 9.0
- Postemergence herbicidal rating, GALAP (GALAP (Galium aparine) [18]; rate 0.0320 kg/ha): 7.0
- Postemergence herbicidal rating, GALAP (GALAP (Galium aparine) [18]; rate 0.0620 kg/ha): 7.0
- Postemergence herbicidal rating, GALAP (GALAP (Galium aparine) [18]; rate 0.1250 kg/ha): 5.0
